Assay type in all cases: cell-based, human
For experiment [1], the system named is SLC16A11 protein. As to the kind of experiment: Proteasomal degradation: SLC16A11 protein levels by Western blot. The conditions noted are these: HuH7 cells stably expressing SLC16A11^REF-V5; 5 μM for 3 hrs. How it is done:
FIG. 5D (top panel) provides two Western blots showing that SLC16A11 is degraded by the proteasome and has a short half-life relative to other SLC16 family members. […] HEK293T cells expressing V5-tagged SLC16A11^REF, SLC16A13, or SLC16A1 were treated with cycloheximide (10 μg/mL) for the indicated times. Note that the SLC16A11, SLC16A13, and SLC16A1 images are from different exposure times. […] HuH7 cells stably expressing SLC16A11^REF-V5 were treated with MG132 (5 μM) or cyclohexamide for 3 hrs. FIG. 5D (bottom panel) provides Western blot showing SLC16A11 and BSG co-immunoprecipitations. (5D-A-5D-C): Co-immunoprecipitation of SLC16A11 and BSG confirms the reduced interaction between SLC16A11^T2D and BSG in HEK293T cells. BSG is glycosylated and runs as multiple bands by reducing SDS-PAGE. Molecular weight markers (kDa) are indicated. (5D-A): Interaction of BSG-V5 with immunoprecipitated SLC16A11-HA. (5D B): Interaction of SLC16A11-HA with immunoprecipitated BSG-V5. (C) Interaction of endogenous BSG with immunoprecipitated SLC16A11-HA. […]
Total protein concentration was measured using a BCA assay (Thermo Fisher Scientific) and equal quantities of protein were loaded on each gel. […] Signals were detected with HRP-conjugated secondary antibodies, followed by chemiluminescent detection and autoradiography. […]
A general note: In western blotting, separated proteins are transferred to a membrane and probed.

Experiment [2] has as its system SLC16A11 protein. Description: SLC16A11 protein levels in HuH7 cells cultured with metabolites (Western blot). As to conditions: HuH7 cells stably expressing SLC16A11, cultured with metabolite 24 hr. The source says:
FIG. 19 provides Western blots and experimental protocol steps involved in the analysis of SLC16A11 protein levels after culture of HuH7 cells stably expressing SLC16A11 in the presence or absence of various metabolites, namely, pyruvate, lactate and glucose. Cell lysates were used in the analysis. […] Tubulin is shown as a reference. As shown, glucose, pyruvate and […] are metabolites that affect SLC16A11 protein levels.
FIG. 20 provides Western blots of V5-tagged SLC16A11 (WT) and the V5-tagged SLC16A11 variant, T2D risk, stably expressed in HuH7 cells that had been glucose-starved for the times indicated. Cell lysates were used in the analysis. […] A similar finding is observed in the left blot of FIG. 19, above, in which no SLC16A11 protein was detected in cell lysates cultured for 24 hrs without glucose compared with detectable levels of SLC16A11 protein found in lysates from cultures containing 1-5 g/L of glucose.
FIG. 21 provides Western blots of V5-tagged SLC16A11 (WT) and the V5-tagged SLC16A11 variant, T2D risk, stably expressed in HuH7 cells that been cultured for 24 hours with or without glucose and with either low (L) or high (H) concentrations of pyruvate and lactate as indicated. Cell lysates were used in the analysis. […]

Another experiment concerns SLC16A11. Description: Metabolic effectors on SLC16A11 transcript levels in SNU761 cells. The conditions noted are these: 24 hours, low and high concentrations. How it is done: (§1) FIG. 22 provides bar graphs showing the effects of low and high concentrations of metabolic effectors (oleic acid (OA), insulin and glucagon) on expression levels of SLC16A11 and SLC16A13 transcripts in SNU761 cells cultured for 24 hours in the presence of low/high concentrations of OA (0.3 mM/1.5 mM); insulin (100 nM/500 nM); or glucagon (100 nM/500 nM). Relative transcipt levels of SLC16A11 and SLC16A13 are shown, with 2-FBS (2% Fetal Bovine Serum) used as control.
(§2) FIG. 23 provides bar graphs showing the effects of low and high concentrations of pyruvate or lactate on expression levels of SLC16A11 and SLC16A13 transcripts in SNU761 cells cultured for 24 hours in the presence of 2 mM pyruvate (low), 10 mM pyruvate (high), 20 mM lactate (low), or 100 mM lactate (high). Relative transcipt levels of SLC16A11 and SLC16A13 are shown, compared with transcript levels in cell cultured in increasing concentrations of glucose.
(§3) To assess whether metabolic effectors regulated SLC16A11 and SLC16A13 transcript levels, endogenous transcripts in SNU761 cells (derived from a human hepatocellular carcinoma) were examined following exposure of the cells to different metabolic perturbations. SNU761 cells were cultured in the presence of various metabolic effectors for 24 hours after which time cell lysates were collected and the relative endogenous expression levels of SLC16A11 and SLC16A13 transcripts were assessed. The metabolic effectors included in the cell cultures included oleic acid (OA) at a low concentration (0.3 mM) or a high concentration (1.5 mM); insulin at a low concentration (100 nM) or a high concentration (500 nM) and glucagon at a low concentration (100 nM) and a high concentration (500 nM). Cells cultured in 2-FBS were used as a control. […] (FIG. 22). Similarly, SNU761 cells were cultured in the presence or absence of low or high concentrations of pyruvate or lactate in the culture medium for 24 hours after which time cell lysates were analyzed. In the cultures, low (L) pyruvate concentration was 2 mM; high (H) pyruvate concentration was 10 mM, and low lactate concentration was 20 mM, while high lactate concentration was 100 mM. […] (FIG. 23).

The next experiment has as its system SLC16A13. As to the kind of experiment: Metabolic effectors on SLC16A13 transcript levels in SNU761 cells. As to conditions: 24 hours, high concentration (10 mM pyruvate, 100 mM lactate). As to the method:
as §1, §2, §3

Residues, ends and D or L forms follow the SMILES beside them. *: point of attachment. Cbz = O=C(OCc1ccccc1)*

In the case of `CC(C)C[C@@H](C=O)NC(=O)[C@H](CC(C)C)NC(=O)[C@H](CC(C)C)NC(=O)OCc1ccccc1` [MG132] (Cbz-Leu-Leu-Leu-aldehyde), the SLC16A11 protein levels result with SLC16A11 protein [1] is listed as “increased”.

In the case of `CC(O)C(=O)O` (stereo not shown) [lactate], the SLC16A11 protein levels result in the experiment with SLC16A11 protein [2] is “alter SLC16A11 protein levels”. Besides, in the experiment with SLC16A11, the SLC16A11 transcript levels entry is given as “alter transcripts at 17p13”. Further, the “relative transcript levels of SLC16A13” value with SLC16A13 is listed as “increased”.
